# Compound: CC1=CC(=C(N1C2=CC=C(C=C2)Cl)C)C(=O)CN3CCCCC3 [IU1-47] + CC1(C)CCC(c2ccc(Cl)cc2)=C(CN2CCN(c3ccc(C(=O)NS(=O)(=O)c4ccc(N[C@H](CCN5CCOCC5)CSc5ccccc5)c(S(=O)(=O)C(F)(F)F)c4)cc3)CC2)C1 [Navitoclax] (partner 0.5 µM)
# Assay: relative viability (nuclei count vs DMSO), 5 days (fraction); higher = more cells survive
# Settings: first compound 0.08 µM
# Method in brief: (§1)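 Five library-drug doses in √10 steps were combined with a fixed anchor-drug dose, or a single drug was given alone, by pin tool to lung cancer cell lines in 1536-well plates the day after seeding. Nuclei were stained and counted after 5 days. Relative viability is the nuclei count in treated wells over that in vehicle wells, taken as the median of duplicate plates.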
row,Cell Line,relative viability
1,EPLC-272H,1.19
2,NCI-H2228,0.871
3,NCI-H1355,0.946
4,NCI-H3122,1.02
5,NCI-H1437,1.15
6,NCI-H1755,1.15
7,NCI-H2023,1.02
8,HCC-15,0.829
9,NCI-H1793,0.412
10,PC-14,1.22
11,EKVX,1.24
12,LC-2-ad,0.429
13,NCI-H1944,1.1
14,NCI-H1975,1.25
15,RERF-LC-KJ,0.939
16,PC-3 [JPC-3],0.834

# Same assay, conditions: first compound 0.253 µM
row,Cell Line,relative viability
1,EPLC-272H,1.07
2,NCI-H2228,0.97
3,NCI-H1355,0.943
4,NCI-H3122,0.966
5,NCI-H1437,1.08
6,NCI-H1755,1.05
7,NCI-H2023,0.934
8,HCC-15,0.721
9,NCI-H1793,0.358
10,PC-14,1.14
11,EKVX,1.17
12,LC-2-ad,0.548
13,NCI-H1944,1.12
14,NCI-H1975,1.14
15,RERF-LC-KJ,0.812
16,PC-3 [JPC-3],0.817

# Same assay, conditions: first compound 0.8 µM
row,Cell Line,relative viability
1,EPLC-272H,1.07
2,NCI-H2228,1.69
3,NCI-H1355,0.977
4,NCI-H3122,1.02
5,NCI-H1437,1.1
6,NCI-H1755,1.06
7,NCI-H2023,1.05
8,HCC-15,0.815
9,NCI-H1793,0.445
10,PC-14,1.16
11,EKVX,0.965
12,LC-2-ad,0.524
13,NCI-H1944,1.04
14,NCI-H1975,1.38
15,RERF-LC-KJ,0.839
16,PC-3 [JPC-3],0.804

# Same assay, conditions: first compound 2.53 µM
row,Cell Line,relative viability
1,NCI-H2228,0.659
2,NCI-H1355,0.898
3,NCI-H3122,1.01
4,NCI-H1437,0.982
5,NCI-H1755,1.07
6,NCI-H2023,1.02
7,HCC-15,0.626
8,PC-14,1.06
9,EKVX,0.973
10,LC-2-ad,0.443
11,NCI-H1975,1.18
12,RERF-LC-KJ,1.14

# Same assay, conditions: first compound 8 µM
row,Cell Line,relative viability
1,EPLC-272H,1.12
2,NCI-H2228,0.832
3,NCI-H1355,0.848
4,NCI-H3122,1
5,NCI-H1437,0.955
6,NCI-H1755,1.01
7,NCI-H2023,1.1
8,HCC-15,0.589
9,NCI-H1793,0.424
10,PC-14,0.932
11,EKVX,0.882
12,LC-2-ad,0.382
13,NCI-H1944,1.03
14,NCI-H1975,0.888
15,RERF-LC-KJ,0.879
16,PC-3 [JPC-3],0.788

# Compound: Cc1nc(C(=O)NCC(=O)O)c(O)c2ccc(Oc3ccccc3)cc12 [FG-4592] + CC1(C)CCC(c2ccc(Cl)cc2)=C(CN2CCN(c3ccc(C(=O)NS(=O)(=O)c4ccc(N[C@H](CCN5CCOCC5)CSc5ccccc5)c(S(=O)(=O)C(F)(F)F)c4)cc3)CC2)C1 [Navitoclax] (partner 0.5 µM)
# Assay: as above
# Settings: first compound 0.08 µM
# Method in brief: as §1
row,Cell Line,relative viability
1,EPLC-272H,1.15
2,NCI-H2228,0.949
3,NCI-H1355,1.08
4,NCI-H3122,1.03
5,NCI-H1437,1.07
6,NCI-H1755,0.989
7,NCI-H2023,0.991
8,HCC-15,0.758
9,NCI-H1793,0.335
10,PC-14,1.01
11,EKVX,0.848
12,LC-2-ad,0.489
13,NCI-H1944,1.07
14,NCI-H1975,1.21
15,RERF-LC-KJ,0.87
16,PC-3 [JPC-3],0.778

# Same assay, conditions: first compound 0.253 µM
row,Cell Line,relative viability
1,EPLC-272H,1.09
2,NCI-H2228,0.663
3,NCI-H1355,0.94
4,NCI-H3122,0.978
5,NCI-H1437,1.09
6,NCI-H1755,0.977
7,NCI-H2023,1
8,HCC-15,0.698
9,NCI-H1793,0.384
10,PC-14,1.06
11,EKVX,0.813
12,LC-2-ad,0.465
13,NCI-H1944,1.03
14,NCI-H1975,1.1
15,RERF-LC-KJ,0.691
16,PC-3 [JPC-3],0.823

# Same assay, conditions: first compound 0.8 µM
row,Cell Line,relative viability
1,EPLC-272H,0.775
2,NCI-H2228,0.896
3,NCI-H3122,0.997
4,NCI-H1437,1.16
5,NCI-H1755,0.937
6,NCI-H2023,1.12
7,HCC-15,0.686
8,PC-14,1.08
9,EKVX,0.855
10,LC-2-ad,0.329
11,NCI-H1944,0.962
12,NCI-H1975,1.29
13,RERF-LC-KJ,1.06
14,PC-3 [JPC-3],0.829

# Same assay, conditions: first compound 2.53 µM
row,Cell Line,relative viability
1,EPLC-272H,1.05
2,NCI-H2228,0.832
3,NCI-H1355,0.901
4,NCI-H3122,1.03
5,NCI-H1437,1.01
6,NCI-H1755,0.997
7,NCI-H2023,0.94
8,HCC-15,0.714
9,NCI-H1793,0.291
10,PC-14,1.01
11,EKVX,1.09
12,LC-2-ad,0.458
13,NCI-H1944,1.03
14,NCI-H1975,1.1
15,RERF-LC-KJ,1.07
16,PC-3 [JPC-3],0.875

# Same assay, conditions: first compound 8 µM
row,Cell Line,relative viability
1,EPLC-272H,1.08
2,NCI-H2228,0.819
3,NCI-H1355,0.862
4,NCI-H3122,1.05
5,NCI-H1437,0.852
6,NCI-H1755,1.01
7,NCI-H2023,0.829
8,HCC-15,0.744
9,NCI-H1793,0.238
10,PC-14,1.03
11,EKVX,1.04
12,LC-2-ad,0.503
13,NCI-H1944,0.907
14,NCI-H1975,1.06
15,RERF-LC-KJ,0.622
16,PC-3 [JPC-3],0.859

# Compound: Cc1nc(C(=O)NCC(=O)O)c(O)c2ccc(Oc3ccccc3)cc12 [FG-4592] + COc1cc2c(Oc3ccc(NC(=O)C4(C(=O)Nc5ccc(F)cc5)CC4)cc3F)ccnc2cc1OCCCN1CCOCC1 [Foretinib] (partner 0.25 µM)
# Assay: as above
# Settings: first compound 0.08 µM
# Method in brief: as §1
row,Cell Line,relative viability
1,EPLC-272H,0.755
2,NCI-H2228,0.672
3,NCI-H1355,0.987
4,NCI-H3122,0.957
5,NCI-H1437,1.24
6,NCI-H1755,0.907
7,NCI-H2023,0.792
8,HCC-15,1.03
9,NCI-H1793,0.739
10,PC-14,1.09
11,EKVX,0.744
12,LC-2-ad,0.88
13,NCI-H1944,0.928
14,NCI-H1975,0.986
15,RERF-LC-KJ,0.853
16,PC-3 [JPC-3],1.09

# Same assay, conditions: first compound 0.253 µM
row,Cell Line,relative viability
1,EPLC-272H,0.738
2,NCI-H2228,0.744
3,NCI-H1355,0.678
4,NCI-H3122,0.952
5,NCI-H1437,1.19
6,NCI-H1755,0.905
7,NCI-H2023,0.79
8,HCC-15,0.978
9,NCI-H1793,0.71
10,PC-14,0.997
11,EKVX,0.804
12,LC-2-ad,0.838
13,NCI-H1944,0.816
14,NCI-H1975,0.949
15,RERF-LC-KJ,0.868
16,PC-3 [JPC-3],0.937

# Same assay, conditions: first compound 0.8 µM
row,Cell Line,relative viability
1,EPLC-272H,0.521
2,NCI-H2228,0.945
3,NCI-H1355,0.93
4,NCI-H3122,0.934
5,NCI-H1437,1.29
6,NCI-H1755,0.857
7,NCI-H2023,0.885
8,HCC-15,1.04
9,PC-14,1
10,EKVX,0.773
11,NCI-H1944,0.941
12,NCI-H1975,1.07
13,RERF-LC-KJ,0.817
14,PC-3 [JPC-3],1.06

# Same assay, conditions: first compound 2.53 µM
row,Cell Line,relative viability
1,EPLC-272H,0.706
2,NCI-H2228,0.854
3,NCI-H1355,1.02
4,NCI-H3122,0.993
5,NCI-H1437,1.3
6,NCI-H1755,0.929
7,NCI-H2023,0.854
8,HCC-15,0.93
9,NCI-H1793,0.593
10,PC-14,0.965
11,EKVX,0.717
12,LC-2-ad,0.789
13,NCI-H1944,0.85
14,NCI-H1975,0.956
15,RERF-LC-KJ,0.888
16,PC-3 [JPC-3],1.04

# Same assay, conditions: first compound 8 µM
row,Cell Line,relative viability
1,EPLC-272H,0.641
2,NCI-H2228,0.717
3,NCI-H1355,0.971
4,NCI-H3122,0.921
5,NCI-H1437,1.04
6,NCI-H1755,0.921
7,NCI-H2023,0.742
8,HCC-15,1.07
9,NCI-H1793,0.554
10,PC-14,0.987
11,EKVX,1.04
12,LC-2-ad,0.877
13,NCI-H1944,0.934
14,NCI-H1975,0.833
15,RERF-LC-KJ,0.771
16,PC-3 [JPC-3],1.02

# Compound: Cc1nc(C(=O)NCC(=O)O)c(O)c2ccc(Oc3ccccc3)cc12 [FG-4592] + Nc1nc2[nH]cc(CCc3ccc(C(=O)N[C@@H](CCC(=O)O)C(=O)O)cc3)c2c(=O)[nH]1 [Pemetrexed] (partner 0.2 µM)
# Assay: as above
# Settings: first compound 0.08 µM
# Method in brief: as §1
row,Cell Line,relative viability
1,EPLC-272H,0.321
2,NCI-H2228,0.368
3,NCI-H1355,1.07
4,NCI-H3122,0.197
5,NCI-H1437,0.32
6,NCI-H1755,0.417
7,NCI-H2023,0.228
8,HCC-15,0.21
9,PC-14,0.128
10,EKVX,0.346
11,LC-2-ad,0.29
12,NCI-H1944,0.608
13,NCI-H1975,0.27
14,RERF-LC-KJ,0.466
15,PC-3 [JPC-3],1.09

# Same assay, conditions: first compound 0.253 µM
row,Cell Line,relative viability
1,EPLC-272H,0.223
2,NCI-H2228,0.302
3,NCI-H1355,0.942
4,NCI-H3122,0.191
5,NCI-H1437,0.31
6,NCI-H1755,0.483
7,NCI-H2023,0.198
8,HCC-15,0.235
9,NCI-H1793,0.95
10,PC-14,0.138
11,EKVX,0.36
12,LC-2-ad,0.29
13,NCI-H1944,0.703
14,NCI-H1975,0.293
15,RERF-LC-KJ,0.472
16,PC-3 [JPC-3],1.02

# Same assay, conditions: first compound 0.8 µM
row,Cell Line,relative viability
1,EPLC-272H,0.319
2,NCI-H2228,0.434
3,NCI-H3122,0.194
4,NCI-H1437,0.349
5,NCI-H1755,0.46
6,NCI-H2023,0.244
7,HCC-15,0.22
8,PC-14,0.129
9,EKVX,0.376
10,LC-2-ad,0.269
11,NCI-H1944,0.567
12,NCI-H1975,0.292
13,RERF-LC-KJ,0.481

# Same assay, conditions: first compound 2.53 µM
row,Cell Line,relative viability
1,EPLC-272H,0.353
2,NCI-H2228,0.331
3,NCI-H1355,1.03
4,NCI-H3122,0.187
5,NCI-H1437,0.32
6,NCI-H1755,0.4
7,NCI-H2023,0.232
8,HCC-15,0.221
9,NCI-H1793,0.833
10,PC-14,0.131
11,EKVX,0.377
12,LC-2-ad,0.26
13,NCI-H1944,0.602
14,NCI-H1975,0.268
15,RERF-LC-KJ,0.486
16,PC-3 [JPC-3],1.19

# Same assay, conditions: first compound 8 µM
row,Cell Line,relative viability
1,EPLC-272H,0.377
2,NCI-H2228,0.32
3,NCI-H1355,1.05
4,NCI-H3122,0.211
5,NCI-H1437,0.274
6,NCI-H1755,0.453
7,NCI-H2023,0.217
8,HCC-15,0.232
9,NCI-H1793,0.782
10,PC-14,0.148
11,EKVX,0.515
12,LC-2-ad,0.288
13,NCI-H1944,0.606
14,NCI-H1975,0.307
15,RERF-LC-KJ,0.498
16,PC-3 [JPC-3],1.05

# From the supplement of paper PMC10307832
